The text below walks through data of patent publication US10717716B2, “1,3,4-oxadiazole derivative compounds as histone deacetylase 6 inhibitor, and the pharmaceutical composition comprising the same” (Chong Kun Dang Pharmaceutical Corp., priority 2015, dated 2020).

This assay addresses T1, human recombinant HDAC6 (Homo sapiens, UniProt Q9UBN7).
T1 construct: purchased Calbiochem 382180
T1 sequence (Q9UBN7 1-1215): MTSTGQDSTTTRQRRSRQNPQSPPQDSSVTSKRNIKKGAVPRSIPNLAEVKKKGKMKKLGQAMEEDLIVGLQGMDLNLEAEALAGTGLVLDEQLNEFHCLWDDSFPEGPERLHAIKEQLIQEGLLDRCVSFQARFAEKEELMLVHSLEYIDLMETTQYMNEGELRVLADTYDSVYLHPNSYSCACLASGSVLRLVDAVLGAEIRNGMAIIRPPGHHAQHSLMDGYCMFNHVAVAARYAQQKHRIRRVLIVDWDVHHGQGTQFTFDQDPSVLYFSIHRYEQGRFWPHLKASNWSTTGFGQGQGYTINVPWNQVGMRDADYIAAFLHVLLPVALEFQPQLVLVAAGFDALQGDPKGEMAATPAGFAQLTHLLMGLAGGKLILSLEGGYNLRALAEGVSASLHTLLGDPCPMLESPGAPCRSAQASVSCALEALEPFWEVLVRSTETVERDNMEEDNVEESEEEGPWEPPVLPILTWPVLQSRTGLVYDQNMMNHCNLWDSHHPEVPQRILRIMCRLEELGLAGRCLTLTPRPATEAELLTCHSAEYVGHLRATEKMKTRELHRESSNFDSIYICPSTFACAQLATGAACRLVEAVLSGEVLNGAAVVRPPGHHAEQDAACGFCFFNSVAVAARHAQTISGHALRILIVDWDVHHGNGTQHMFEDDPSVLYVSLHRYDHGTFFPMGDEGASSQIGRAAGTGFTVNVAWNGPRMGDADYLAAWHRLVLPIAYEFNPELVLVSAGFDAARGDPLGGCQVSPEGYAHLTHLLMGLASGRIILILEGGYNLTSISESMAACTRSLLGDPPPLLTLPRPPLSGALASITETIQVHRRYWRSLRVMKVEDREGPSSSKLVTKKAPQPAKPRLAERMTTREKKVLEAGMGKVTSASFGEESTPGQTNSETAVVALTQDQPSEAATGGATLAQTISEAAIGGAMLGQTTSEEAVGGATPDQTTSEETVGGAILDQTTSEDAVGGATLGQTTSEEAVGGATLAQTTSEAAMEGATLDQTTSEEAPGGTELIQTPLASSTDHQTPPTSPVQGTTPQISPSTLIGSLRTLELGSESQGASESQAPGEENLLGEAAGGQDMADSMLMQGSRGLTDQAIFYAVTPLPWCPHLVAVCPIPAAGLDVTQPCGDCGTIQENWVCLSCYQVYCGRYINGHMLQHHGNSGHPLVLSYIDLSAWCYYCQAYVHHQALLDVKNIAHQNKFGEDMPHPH
The assay can be described thus: HDAC6 enzyme activity inhibition assay (HDAC Fluorimetric Drug Discovery Kit). The format is biochemical. Particulars: for HDAC6 selectivity (fold): HDAC6 over HDAC1; for IC50: human recombinant HDAC6, same protocol as HDAC1, read-out: HDAC6. In outline:
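Human recombinant HDAC1 or HDAC6 (0.3 μg) reacted with 10 μM Fluor de Lys-SIRT1 substrate and 5-fold compound dilutions for 60 min at 30 °C. Developer II added for 30 min, fluorescence read at Ex 360/Em 460; IC50 calculated from the readings.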

Regarding `O=C(N1CCC2(CC1)CNC2)N(Cc1ccc(-c2nnc(C(F)(F)F)o2)cc1)c1ccccc1` [Compound 21417, N-phenyl-N-(4-(5-(trifluoromethyl)-1,3,4-oxadiazol-2-yl)benzyl)-2,7-diazaspiro[3.5]nonane-7-carboxamide], the “HDAC6 selectivity (fold)” value turned out to be 143 fold and the IC50 came to 70 nM.

As for `CC(=O)N1CC2(CCN(C(=O)N(Cc3ccc(-c4nnc(C(F)(F)F)o4)cc3)c3ccccc3)CC2)C1` [Compound 21418, 2-Acetyl-N-phenyl-N-(4-(5-(trifluoromethyl)-1,3,4-oxadiazol-2-yl)benzyl)-2,7-diazaspiro[3.5]nonane-7-carboxamide], the “HDAC6 selectivity (fold)” value worked out at 65 fold and the IC50 was 154 nM.

Regarding `CS(=O)(=O)N1CC2(CCN(C(=O)N(Cc3ccc(-c4nnc(C(F)(F)F)o4)cc3)c3ccccc3)CC2)C1` [Compound 21419, 2-(Methylsulfonyl)-N-phenyl-N-(4-(5-(trifluoromethyl)-1,3,4-oxadiazol-2-yl)benzyl)-2,7-diazaspiro[3.5]nonane-7-carboxamide], the “HDAC6 selectivity (fold)” value stood at 130 fold and the IC50 came out at 77 nM.

Turning to `CN1CC2(CCN(C(=O)N(Cc3ccc(-c4nnc(C(F)(F)F)o4)cc3)c3ccccc3)CC2)C1` [Compound 21420, 2-Methyl-N-phenyl-N-(4-(5-(trifluoromethyl)-1,3,4-oxadiazol-2-yl)benzyl)-2,7-diazaspiro[3.5]nonane-7-carboxamide], the “HDAC6 selectivity (fold)” value is reported as 143 fold and the IC50 came out at 70 nM.

Regarding `CCN1CC2(CCN(C(=O)N(Cc3ccc(-c4nnc(C(F)(F)F)o4)cc3)c3ccccc3)CC2)C1` [Compound 21421, 2-Ethyl-N-phenyl-N-(4-(5-(trifluoromethyl)-1,3,4-oxadiazol-2-yl)benzyl)-2,7-diazaspiro[3.5]nonane-7-carboxamide], the “HDAC6 selectivity (fold)” value was found to be 149 fold and the IC50 was found to be 67 nM.

Regarding `CC(=O)N1CCCN(C(=O)N(Cc2ccc(-c3nnc(C(F)(F)F)o3)cc2)c2ccccc2)CC1` [Compound 21422, 4-Acetyl-N-phenyl-N-(4-(5-(trifluoromethyl)-1,3,4-oxadiazol-2-yl)benzyl)-1,4-diazepane-1-carboxamide], the “HDAC6 selectivity (fold)” value is 95 fold and the IC50 came to 105 nM.

Regarding `CN1CCCN(C(=O)N(Cc2ccc(-c3nnc(C(F)F)o3)cc2F)c2ccccc2)CC1` [Compound 21423, N-(4-(5-(difluoromethyl)-1,3,4-oxadiazol-2-yl)-2-fluorobenzyl)-4-methyl-N-phenyl-1,4-diazepane-1-carboxamide], the “HDAC6 selectivity (fold)” value is reported as 377 fold and the IC50 was 26.5 nM.

For the compound `O=C(N1CCOCC1)N(Cc1ccc(-c2nnc(C(F)(F)F)o2)cc1)c1ccccn1` [Compound 21424, N-(pyridin-2-yl)-N-(4-(5-(trifluoromethyl)-1,3,4-oxadiazol-2-yl)benzyl)morpholine-4-carboxamide], the “HDAC6 selectivity (fold)” value came out at 54 fold and the IC50 worked out at 184 nM.

On to `O=C(N1CCOCC1)N(Cc1ccc(-c2nnc(C(F)(F)F)o2)cc1)c1ncccn1` [Compound 21425, N-(pyrimidin-2-yl)-N-(4-(5-(trifluoromethyl)-1,3,4-oxadiazol-2-yl)benzyl)morpholine-4-carboxamide], for which the “HDAC6 selectivity (fold)” value amounted to 77 fold and the IC50 is 130 nM.

Take `O=C(N1CCOCC1)N(Cc1ccc(-c2nnc(C(F)(F)F)o2)cc1)c1ccc(F)cc1` [Compound 21426, N-(4-fluorophenyl)-N-(4-(5-(trifluoromethyl)-1,3,4-oxadiazol-2-yl)benzyl)morpholine-4-carboxamide]: the “HDAC6 selectivity (fold)” value amounted to 20 fold and the IC50 worked out at 489 nM.

For `O=C(N1CCOCC1)N(Cc1ccc(-c2nnc(C(F)(F)F)o2)cc1)c1cccnc1` [Compound 21427, N-(pyridin-3-yl)-N-(4-(5-(trifluoromethyl)-1,3,4-oxadiazol-2-yl)benzyl)morpholine-4-carboxamide], the “HDAC6 selectivity (fold)” value is reported as 79 fold and the IC50 amounted to 126 nM.

`O=C(N1CCOCC1)N(Cc1ccc(-c2nnc(C(F)(F)F)o2)cc1)c1ccccc1F` [Compound 21428, N-(2-fluorophenyl)-N-(4-(5-(trifluoromethyl)-1,3,4-oxadiazol-2-yl)benzyl)morpholine-4-carboxamide]: the “HDAC6 selectivity (fold)” value turned out to be 75 fold and the IC50 was determined as 134 nM.

Take `O=C(N1CCOCC1)N(Cc1ccc(-c2nnc(C(F)(F)F)o2)cc1Cl)c1ccccc1` [Compound 21429, N-(2-chloro-4-(5-(trifluoromethyl)-1,3,4-oxadiazol-2-yl)benzyl)-N-phenylmorpholine-4-carboxamide]: the “HDAC6 selectivity (fold)” value amounted to 5 fold and the IC50 turned out to be 2080 nM.

In the case of `O=C(N1CCOCC1)N(Cc1c(F)cc(-c2nnc(C(F)(F)F)o2)cc1F)c1ccccc1` [Compound 21431, N-(2,6-difluoro-4-(5-(trifluoromethyl)-1,3,4-oxadiazol-2-yl)benzyl)-N-phenylmorpholine-4-carboxamide], the “HDAC6 selectivity (fold)” value came out at 39 fold and the IC50 is 256 nM.

Take `O=C(N1CCOCC1)N(Cc1c(F)cc(-c2nnc(C(F)F)o2)cc1F)c1ccccc1` [Compound 21432, N-(4-(5-(difluoromethyl)-1,3,4-oxadiazol-2-yl)-2,6-difluorobenzyl)-N-phenylmorpholine-4-carboxamide]: the “HDAC6 selectivity (fold)” value came to 208 fold and the IC50 amounted to 48 nM.

Regarding `O=C(N1CCS(=O)(=O)CC1)N(Cc1ccc(-c2nnc(C(F)(F)F)o2)cc1)c1ccc(F)cc1F` [Compound 21433, N-(2,4-difluorophenyl)-N-(4-(5-(trifluoromethyl)-1,3,4-oxadiazol-2-yl)benzyl)thiomorpholine-4-carboxamide 1,1-dioxide], the “HDAC6 selectivity (fold)” value stood at 172 fold and the IC50 came out at 58 nM.

Take `Cc1ccc(N(Cc2ccc(-c3nnc(C(F)(F)F)o3)cc2)C(=O)N2CCS(=O)(=O)CC2)c(F)c1` [Compound 21434, N-(2-fluoro-4-methylphenyl)-N-(4-(5-(trifluoromethyl)-1,3,4-oxadiazol-2-yl)benzyl)thiomorpholine-4-carboxamide 1,1-dioxide]: the “HDAC6 selectivity (fold)” value came out at 53 fold and the IC50 amounted to 188 nM.

Consider `COc1ccccc1N(Cc1ccc(-c2nnc(C(F)(F)F)o2)cc1)C(=O)N1CCS(=O)(=O)CC1` [Compound 21440, N-(2-methoxyphenyl)-N-(4-(5-(trifluoromethyl)-1,3,4-oxadiazol-2-yl)benzyl)thiomorpholine-4-carboxamide 1,1-dioxide], for which the “HDAC6 selectivity (fold)” value turned out to be 37 fold and the IC50 stood at 267 nM.

`CS(=O)(=O)c1ccc(N(Cc2ccc(-c3nnc(C(F)F)o3)cc2)C(=O)N2CCOCC2)cc1` [Compound 21444, N-(4-(5-(difluoromethyl)-1,3,4-oxadiazol-2-yl)benzyl)-N-(4-(methylsulfonyl)phenyl)morpholine-4-carboxamide]: the “HDAC6 selectivity (fold)” value came out at 57 fold and the IC50 was 175 nM.

With `Cc1ccc(N(Cc2ccc(-c3nnc(C(F)(F)F)o3)cc2)C(=O)N2CCS(=O)(=O)CC2)cc1` [Compound 21445, N-(p-tolyl)-N-(4-(5-(trifluoromethyl)-1,3,4-oxadiazol-2-yl)benzyl)thiomorpholine-4-carboxamide 1,1-dioxide], the “HDAC6 selectivity (fold)” value worked out at 33 fold and the IC50 stood at 303 nM.

`Cc1ccc(N(Cc2ccc(-c3nnc(C(F)F)o3)cc2)C(=O)N2CCS(=O)(=O)CC2)cc1` [Compound 21446, N-(4-(5-(difluoromethyl)-1,3,4-oxadiazol-2-yl)benzyl)-N-(p-tolyl)thiomorpholine-4-carboxamide 1,1-dioxide]: the “HDAC6 selectivity (fold)” value is recorded as 115 fold and the IC50 came out at 87 nM.

With `O=C(N1CCS(=O)(=O)CC1)N(Cc1ccc(-c2nnc(C(F)(F)F)o2)cc1)c1ccccc1F` [Compound 21447, N-(2-fluorophenyl)-N-(4-(5-(trifluoromethyl)-1,3,4-oxadiazol-2-yl)benzyl)thiomorpholine-4-carboxamide 1,1-dioxide], the “HDAC6 selectivity (fold)” value is on record as 196 fold and the IC50 was found to be 51 nM.
